From US20180344725A1, “QUINOLONE CHALCONE COMPOUNDS AND USES THEREOF” (priority 2015, published 2018)

Legend:
[1] = system: MDA-MB-231 human metastatic breast cancer cells; assay: Anti-tumor activity in xenograft mice; format: in vivo; settings: Tax 10 mg/kg I.V. once/week, CTR 30 mg/kg I.P. every 3 days, or Tax 5 + CTR 15 mg/kg once/week
Method: Five-week old female CD-1 and ATH490 (strain code 490) athymic nude mice were purchased from Charles River (Quebec, Canada). The MDA-MB-231 human metastatic breast cancer cells were obtained from the American Tissue Culture Collection (ATCC, Manassas, Va., USA). Cells were maintained under humidified conditions at 37° C. and 5% CO2 in DMEM high glucose medium (ATCC) supplemented with 10% fetal bovine serum and antibiotics.
For paclitaxel treatments, 40 mg/ml stock solution of paclitaxel (Sigma, MO) was prepared in DMSO. Just before administration to mice, the paclitaxel stock solution was diluted ten-fold in a buffer containing 10% DMSO, 12.5% Cremophor, 12.5% ethanol, and 65% saline-based diluent (0.9% sodium chloride, 5% polyethylene glycol, and 0.5% tween-80) which is defined as vehicle (Huang et al., 2006). Alanine transaminase (ALT, SUP6001-c)/Aspartate transaminase (AST, SUP6002-c) color endpoint assay kits were purchased from ID Labs Biotechnology (London, Ontario, Canada). Elevation of ALT and AST levels in serum samples was used as an indicator of liver damage/injury.
To determine the anti-tumor activity of CTR compounds in animals, a xenograft model of human breast cancer cells in athymic nude mice was established. Exponentially growing MDA-MB-231 metastatic breast cancer cells were harvested and counted for inoculation into mice. Each mouse was subcutaneously injected at the flank with 10×10^6 cells in 0.2 ml ice cold 1×PBS. When tumor size reached 4-5 mm in diameter (n=4-5 per group), mice were randomly assigned into several groups as described herein.
Animals were monitored for food and water consumption every day, and their body weights and tumor volumes were measured twice per week. Tumor volumes were measured with a digital caliper and were determined by using the following formula: ½ length×width^2. Blood samples were collected via cardiac puncture and processed further for ALT and AST measurements. The animals were then immediately euthanized by carbon dioxide. Tumors and vital organs (spleen, kidney, liver and lung) were collected and fixed in 10% buffered formalin at 4° C. overnight before being processed for paraffin embedding. The paraffin-embedded blocks were then cut into 4-5 μm thick sections. Each section of tumors and organs was stained with hematoxylin and eosin (H&E).

KB-C-2 = assay: SRB-based cytotoxicity assay, single and combination with paclitaxel; format: cell-based, human; settings: for IC50: Homo sapiens, KB-C2, KB-C-2, multidrug-resistant; for Resistance (fold): KB-C-2 versus KB-C-1
Method: 1845B5 and MCF-10A non-cancer breast cell lines were cultured in DME/F12 medium supplemented with 10% fetal bovine serum, antibiotics and growth factors. […] The human small cell lung carcinoma H69 cell line and its multidrug-resistant MRP1-overexpressing isogenic H69AR cell line were purchased from ATCC. […] H69 cells grow as large multi-cell aggregates, making it difficult to accurately count cell numbers. […] The IL-6 dependent bortezomib-resistant ANBL6-BR cell line was further supplemented with 1 ng/ml of IL-6. The MCF10AT1 and MCF10CA1a cell lines are isogenic to the MCF10A cell line, and obtained from Dr. Valerie Weaver at the Center for Bioengineering and Tissue Regeneration, UCSF, CA, USA. […] The drug-resistant cells were cultured in the absence of drug for at least one passage before carrying out experiments. All cells were maintained in a humidified incubator at 37° C. […] Cell line authentication was performed using short tandem repeat (STR) profiling. […] Some wells were treated with 100 μl of 10% trichloroacetic acid (TCA) as a negative control and sham (medium with dimethyl sulfoxide; DMSO) treated cells were used as a positive control. […] TCA was removed and cells were washed with cold tap water, and plate was air-dried, followed by addition of 50 μl of 0.4% SRB staining solution to each well. After 30 minutes incubation, SRB staining solution was removed. Cells were washed with 1% acetic acid solution, and then washed with tap water to remove unbound staining solution, followed by air-drying. 200 μl of 10 mM (pH10.5) trizma base buffer was added to each well to solubilise macromolecules. […] Cell growth (inhibition) was calculated by the following formula: % cells proliferation=[(AT-CT)/(ST-CT)]×100 wherein AT=absorbance of treated cells, CT=absorbance of negative control cells, and ST=absorbance of sham treated cells. […] CI values were determined from four independent experiments.

[2] = single agent at 0.5IC50 (CTR-17 0.325 μM; CTR-20 0.125 μM; paclitaxel 11.5 nM)
[3] = single agent at IC50 (CTR-17 0.65 μM; CTR-20 0.25 μM; paclitaxel 23 nM)

Structure (SMILES) | tumor size (volume) ([1]; Day 0) | tumor size (volume) ([1]; Day 6) | tumor size (volume) ([1]; Day 14) | tumor size (volume) ([1]; Day 17) | tumor size (volume) ([1]; Day 20) | tumor size (volume) ([1]; Day 24) | tumor size (volume) ([1]; Day 27) | tumor size (volume) ([1]; Day 30) | IC50 (KB-C-2) | Resistance (fold) (KB-C-2) | Cell survival rates (KB-C-2; [2]) | Cell survival rates (KB-C-2; [3]) | Cell survival rates (KB-C-2; single agent at 0.125IC50 (paclitaxel 2.875 nM)) | Cell survival rates (KB-C-2; single agent at 0.25IC50 (paclitaxel 5.75 nM))
COc1ccccc1C(=O)/C=C/c1cc2ccccc2[nH]c1=O [CTR-17, (E)-3-(3-(2-Methoxyphenyl)-3-oxoprop-1-enyl)quinolin-2(1H)-one] | 86.71 mm^3 | 63.99 mm^3 | 90.07 mm^3 | 128.36 mm^3 | 134.76 mm^3 | 160.86 mm^3 | 189.45 mm^3 | 209.84 mm^3 | 650 ± 160 nM | 1.71 fold | 80.0 ± 11.4 | 53.2 ± 12.6 | – | –
COc1ccc2[nH]c(=O)c(/C=C/C(=O)c3ccccc3OC)cc2c1 [CTR-20, (E)-6-Methoxy-3-(3-(2-methoxyphenyl)-3-oxoprop-1-enyl) quinolin-2(1H)-one] | 92.51 mm^3 | 69.89 mm^3 | 84.64 mm^3 | 97.11 mm^3 | 97.22 mm^3 | 106.26 mm^3 | 124.88 mm^3 | 140.63 mm^3 | 250 ± 30 nM | 2.50 fold | 76.0 ± 9.6 | 56.8 ± 8.4 | – | –
CC(=O)O[C@H]1C(=O)[C@@]2(C)[C@H]([C@H](OC(=O)c3ccccc3)[C@]3(O)C[C@H](OC(=O)[C@H](O)[C@@H](NC(=O)c4ccccc4)c4ccccc4)C(C)=C1C3(C)C)[C@]1(OC(C)=O)CO[C@@H]1C[C@@H]2O [Paclitaxel, reference compound] | 91.84 mm^3 | 90.11 mm^3 | 94.66 mm^3 | 92.33 mm^3 | 81.66 mm^3 | 95.61 mm^3 | 139.41 mm^3 | 170.36 mm^3 | – | 11.48 fold | 75.9 ± 7.7 | 48.4 ± 5.8 | 99.6 ± 0.3 | 89.5 ± 6.0
